Measured values from PMC10287695, “Non-covalent inhibitors of thioredoxin glutathione reductase with schistosomicidal activity in vivo” (Nature Communications, 2023).
Like-named read-outs stand apart in the source and are kept apart here.

Legend:
[1] = biological target: T1, Human GR (Homo sapiens, UniProt P00390); assay: Human GR enzyme inhibition (GSSG reduction, NADPH oxidation); type: biochemical; details: for inhibition at 15 µM / inhibition at 30 µM / inhibition at 66.7 µM: hGR, read-out: % inhibition; for inhibition at 15 µM: compound 15 µM; for inhibition at 30 µM: compound 30 µM; for inhibition at 66.7 µM: compound 66.7 µM
T1 construct: made in house
T1 sequence (P00390 44-522): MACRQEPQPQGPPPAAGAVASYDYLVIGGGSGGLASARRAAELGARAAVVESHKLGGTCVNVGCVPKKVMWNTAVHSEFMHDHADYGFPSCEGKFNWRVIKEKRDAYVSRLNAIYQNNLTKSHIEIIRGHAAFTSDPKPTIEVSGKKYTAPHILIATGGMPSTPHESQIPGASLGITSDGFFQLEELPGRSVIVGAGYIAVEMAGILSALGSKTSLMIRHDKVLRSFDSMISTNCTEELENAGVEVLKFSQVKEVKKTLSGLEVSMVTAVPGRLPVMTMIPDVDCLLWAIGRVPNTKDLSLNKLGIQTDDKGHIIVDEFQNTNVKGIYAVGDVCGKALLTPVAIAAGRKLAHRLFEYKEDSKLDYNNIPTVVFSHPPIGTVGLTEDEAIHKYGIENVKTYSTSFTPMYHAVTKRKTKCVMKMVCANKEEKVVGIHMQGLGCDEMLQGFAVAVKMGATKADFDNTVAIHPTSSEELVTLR
Experimental: Recombinant TGR, human TrxR1, B. malayi (Bm)TrxR and human GR proteins were expressed and purified as described[20],[69],[79]. The codon optimized sequence for P. falciparum (PfTrxR, https://www.ncbi.nlm.nih.gov/protein/CAA60574.1/) with an N-terminal 6-His tag was synthesized and inserted into pET15b (GenScript) and expressed in BL21 (DE3) cells and purified as described for human GR[20]. TGR and TrxR enzyme inhibition assays were performed in triplicate at 25 °C as described[20] in 0.1 M potassium phosphate (pH 7.4), 10 mM EDTA, 100 µM NADPH and 0.01% Tween-20. TGR, human TrxR1 and BmTrxR (all at 4 nM) and PfTrxR (50 nM) were preincubated with the compounds for 15 min. The reaction was started with addition of an equal volume of DTNB (6 mM) and NADPH (100 µM) and the increase in A412 during the first 3 min was recorded. […] […] Activity was initiated with the addition of 1 mM GSSG and 100 μM NADPH and initial rates of NADPH oxidation were monitored at 340 nm. The reactions were done in triplicate. The IC50 was calculated in GraphPad Prism.

[2] = system: S. mansoni adult worms; assay: GSH/GSSG ratio in ex vivo adult worms; type: cell-based; details: for Decrease (%) in GSH/GSSG ratio: adult worms, 3 h exposure to compounds at 50 μM
Experimental: We assessed GSH/GSSG levels experimentally by treating S. mansoni adult worms with 50 µM of compounds, or respective controls 5 µM Auranofin, 50 µM PZQ or 50 µM MZM and 0.01% DMSO for 3 h. Worm homogenate was prepared by washing three times with PBS to remove residual compounds and ten volumes of ice cold 5% sulfosalicylic acid was added. Worms were manually homogenized on ice using VWR Pellet Mixer Adaptor. The worm suspension was centrifuged at 14000 × g, 4 °C for 10 min and the acid supernatants transferred. An equal volume of ice-cold neutralization buffer (500 mM HEPES, pH 8.0) was added to the acid supernatants.
GSH/GSSG assay was performed by diluting the acid supernatant (5-fold) with ice-cold dilution buffer (250 mM HEPES, pH 7.5). Using white opaque luminescence plate on ice, 25 µl of the diluted worm acid supernatant was added each well in triplicates. Total glutathione lysis reagent and GSSG lysis reagent, which contains alkylating agent N-ethylmaleimide (25 mM) were prepared following manufactures protocol and added to respective wells along with blank for background. Total glutathione lysis reagent or oxidized glutathione lysis reagent (25 µl) was added to respective wells containing worm acid supernatants and the plate was shaken for 5 min. Luciferin generation reagent (LGR) (50 µl) was added to all wells, briefly shaken and incubated at room temperature for 30 min. Luciferin detection reagent (LDR) (100 µl) was added to all wells, briefly shaken and incubated for 15 min at room temperature and the luminescence measured using microplate imager (BioTek Cytation3). GSH/GSSH ratio for DMSO control and compounds were calculated using (Net DMSO total glutathione RFU) – (Net DMSO GSSG RFU)/ (Net DMSO GSSG RFU)/2 and (Net inhibitor total glutathione RFU) – (Net inhibitor GSSG RFU)/ (Net inhibitor GSSG RFU)/2 respectively.

[3] = system: S. mansoni adult worms; assay: Schistosomicidal activity ex vivo, adult worms (Cell Titer Glo), alone or with channel blockers; type: cell-based; details: for LD50 ex vivo S. mansoni adult: 24 h exposure, compound alone
Experimental: Three-week old, female Swiss-Webster mice obtained from the Charles River were housed in the Comparative Research Center of Rush University Medical Center. Mice were infected by percutaneous tail exposure to about 200 S. mansoni or 50 S. japonicum cercaria for adult worms and about 1000 cercaria for juvenile S. mansoni worms through natural transdermal penetration of the cercariae for 1 h[81].
DMSO formulated compounds were diluted with phenol red free M199 medium or RPMI medium for NTS or juvenile and adult worms, respectively, at <1% DMSO final concentrations. NTS, juvenile and adult worms from overnight cultures were tested against compounds in triplicate. Controls were treated with DMSO alone or 5 µM AF as a positive control in appropriate medium. […] Schistosome viabilities in the presence of the compounds were assessed using this formula: % Viability = Averages of Test / Averages of DMSO Control x 100.

[4] = 1 hr, first data set (r117-133), baseline 55.82
[5] = 1 hr, first data set (r117-133), baseline = 100
[6] = 3 hr, first data set (r117-133), baseline 55.82
[7] = 3 hr, first data set (r117-133), baseline = 100

| SMILES | Human GR (inhibition at 66.7 µM) [1] | Ratio GSH/GSSG [2, 4] | % Ratio GSH/GSSG [2, 5] [%] | Ratio GSH/GSSG [2, 6] | % Ratio GSH/GSSG [2, 7] [%] | Decrease (%) in GSH/GSSG ratio [2] [%] | LD50 ex vivo S. mansoni adult [3] [µM] | viability at 5 µM ([3]; Schistosoma mansoni) [%] | viability at 15 µM ([3]; Schistosoma mansoni) [%] | viability at 30 µM ([3]; Schistosoma mansoni) [%] | viability at 50 µM ([3]; Schistosoma mansoni) [%] | other results |
| --- | --- | --- | --- | --- | --- | --- | --- | --- | --- | --- | --- | --- |
| CCc1ccccc1-c1nc(CN[C@@H]2C[C@@H]3C[C@H]([C@H]2C)C3(C)C)c(C)o1 [Compound 2] | n.i. | 34.19 | 61.2531 | 28.99 | 51.9337 | 39 | 12.5 ± 0.40 | – | – | – | – | inhibition at 15 µM ([1]; 15 minutes pre-incubation): -0.995%; inhibition at 30 µM ([1]; 15 minutes pre-incubation): -1.9%; inhibition at 66.7 µM ([1]; 15 minutes pre-incubation): -0.827%; inhibition at 15 µM ([1]; 6 hours pre-incubation): -5.17%; inhibition at 30 µM ([1]; 6 hours pre-incubation): -3.97%; inhibition at 66.7 µM ([1]; 6 hours pre-incubation): -3.29%; viability at 5 µM ([3]; Schistosoma mansoni, S. mansoni adult worms, Conc. 5 µM, read-out: % viability): 86.9%; viability at 10 µM ([3]; Schistosoma mansoni, S. mansoni adult worms, Conc. 10 µM, read-out: % viability): 59.5%; viability at 25 µM ([3]; Schistosoma mansoni, S. mansoni adult worms, Conc. 25 µM, read-out: % viability): 0.114%; viability at 35 µM ([3]; Schistosoma mansoni, S. mansoni adult worms, Conc. 35 µM): 0.0801% |
| Cc1oc(-c2ccccc2)nc1CN[C@@H]1C[C@@H]2C[C@H]([C@H]1C)C2(C)C [Compound 3] | n.i. | 29.86 | 53.4928 | 25.64 | 45.9343 | 62 | 12.1 ± 2.44 | – | – | – | – | Reduction (%) in GSH/GSSG ratio ([2]; 1 hr, third data set): 60.3556%; Ratio GSH/GSSG ([2]; 1 hr, third data set (r147-159), 0hr 72.45): 28.72; % Ratio GSH/GSSG ([2]; 1 hr, third data set (r147-159), 0hr = 100): 39.6444%; Reduction (%) in GSH/GSSG ratio ([2]; 1 hr, third data set, (values given as fraction)): 0.60%; Reduction (%) in GSH/GSSG ratio ([2]; 3 hr, third data set): 70.1019%; Ratio GSH/GSSG ([2]; 3 hr, third data set (r147-159), 0hr 72.45): 21.66; % Ratio GSH/GSSG ([2]; 3 hr, third data set (r147-159), 0hr = 100): 29.8981%; Reduction (%) in GSH/GSSG ratio ([2]; 3 hr, third data set, (values given as fraction)): 0.70% |
| Cc1oc(C2CCCCC2)nc1CN[C@@H]1C[C@@H]2C[C@H]([C@H]1C)C2(C)C [Compound 4] | n.i. | 28.16 | 50.452 | 18.95 | 33.9548 | 60 | 12.6 ± 1.86 | – | – | – | – | – |
| Cc1oc(-c2ccc3ccccc3c2)nc1CNC1CCCCCC1 [Compound 5] | n.i. | – | – | – | – | 56 | 9.36 ± 0.47 | – | – | – | – | % Ratio GSH/GSSG ([2]; adult worms ex vivo, 1 hr): 47.8314%; Reduction (%) in GSH/GSSG ratio ([2]; adult worms ex vivo, 1 hr, relative to 0hr): 20.3307%; % Ratio GSH/GSSG ([2]; adult worms ex vivo, 3 hr): 26.3574%; Reduction (%) in GSH/GSSG ratio ([2]; adult worms ex vivo, 3 hr, relative to 0hr): 56.0984% |
| C[C@@H]1N=C(c2ccccc2Cl)c2cc([N+](=O)[O-])ccc2NC1=O [MZM, meclonazepam, reference compound] | – | 55.11 | 98.7253 | 55.10 | 98.7201 | – | 26.9 ± 0.97 | 91.9 | 69.8 | 48.7 | 31.3 | – |
| O=C(C1CCCCC1)N1CC(=O)N2CCc3ccccc3C2C1 (stereo not shown) [PZQ, praziquantel] | – | 55.34 | 99.1418 | 55.09 | 98.6979 | – | 32.8 ± 4.07 | 95.6 | 75.1 | 54.8 | 35.2 | – |
